Legend:
Mus musculus [1] = organism: Mus musculus; assay: Anti-inflammatory activity in imiquimod-induced BALB/c mouse psoriasis model assessed as reduction in skin inflammation; format: functional, organism-based
Mus musculus [2] = organism: Mus musculus; assay: Anti-inflammatory activity in imiquimod-induced C57BL/6 mouse psoriasis model assessed as reduction in epidermal thickness at 200 uL relative to control; format: functional; parameters: scale not given: the % may be the effect or the level left
[3] = Upregulation of NE suppressed c-Kit expression in human epidermal melanocyte; format: functional, cell-based
[4] = Inhibition of lipid synthesis in androgen stimulated Hamster flank gland; format: functional, Mesocricetus auratus
[5] = target: T1, 3-oxo-5-alpha-steroid 4-dehydrogenase 1 (Homo sapiens, UniProt P18405); assay: Inhibition of human steroid 5-alpha-reductase 1
T1 sequence (P18405 whole entry): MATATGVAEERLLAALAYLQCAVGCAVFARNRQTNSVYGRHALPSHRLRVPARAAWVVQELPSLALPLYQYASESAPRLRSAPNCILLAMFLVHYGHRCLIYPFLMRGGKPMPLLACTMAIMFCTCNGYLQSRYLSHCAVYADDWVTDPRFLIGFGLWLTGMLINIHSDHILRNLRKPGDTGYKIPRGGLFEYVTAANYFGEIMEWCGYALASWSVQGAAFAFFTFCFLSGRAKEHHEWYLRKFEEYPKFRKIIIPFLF

**Q.** Which EC50 (Mus musculus [1]) does the source give for `CN1C(=O)[C@@H](NC(=O)c2n[nH]c(Cc3ccccc3)n2)COc2ccccc21` [GSK2982772] here?
**A.** Its EC50 is 4 nM.

**Q.** With `CCc1ccc(N(CC(C)C)S(=O)(=O)c2ccc(OCC3CCOCC3)c(CO)c2)cc1` [GSK2981278] as the compound, how does the Activity (Mus musculus [2]) read?
**A.** Its Activity is 23%.

**Q.** For `COC(=O)C1=CO[C@@H](O[C@@H]2O[C@H](CO)[C@@H](O)[C@H](O)[C@H]2O)[C@@H]2C(CO)=CC[C@H]12` [GENIPOSIDE], which EC50 [3] is on record?
**A.** Its EC50 is 1650 nM.

**Q.** For `C[C@]12C=CC(=O)C=C1CC[C@@H]1[C@@H]2C(=O)C[C@@]2(C)[C@H]1CC[C@]2(Cl)S(=O)(=O)Cc1ccccc1`, which “inhibition (INH)” value [4] is on record?
**A.** Its value is 70%.

**Q.** For `CC1=C2CCc3cc(/C=C/c4ccccc4)ccc3N2CCC1=O`, which IC50 [5] is on record?
**A.** Its IC50 is 14.2 nM.
